One series concerns mTOR signaling pathway. As to the kind of experiment: Immunoblot of p-mTOR, p-P70S6K, p-S6 in TNFα-treated starved MDA-MB-231 cells. Type of series: cell-based. Particulars: MDA-MB-231, serum-free 10 h; 2 μM and TNFα (20 ng/ml). A general note: Immunoblotting shows a protein as a band on a membrane.
For the next series, the target named is Nur77-LBD (Homo sapiens, UniProt P22736). Put plainly: Surface plasmon resonance (Biacore T200) binding to Nur77-LBD. In general terms: Surface plasmon resonance follows binding to a sensor surface in real time, without labels.
The next series concerns MDA-MB-231 cells. Put plainly: Immunoblot of parp (apoptosis) in MDA-MB-231 cells. It is filed as cell-based. The conditions noted are these: 4 μM and TNFα (20 ng/ml).
Another series has as its system MDA-MB-231. As to the kind of experiment: Proliferation of MDA-MB-231 breast cancer cells. Type of series: cell-based. The conditions noted are these: Homo sapiens.
In a further series the test system is T47D. Put plainly: Proliferation of T47D breast cancer cells. It is filed as cell-based. Particulars: Homo sapiens, 72 h, read-out: IC50 for inhibiting the proliferation.
Series [1] relates to Nur77 knocked-out Hela cells. Put plainly: Proliferation of Nur77 knocked-out Hela cells. Type of series: cell-based. Particulars: Homo sapiens.
Another series relates to SKBR3. As to the kind of experiment: Proliferation of SKBR3 breast cancer cells. Type of series: cell-based. Particulars: Homo sapiens, SK-BR-3; SKBR3, 72 h; read-out: IC50 for inhibiting the proliferation.
In the next series the test system is MCF-7. As to the kind of experiment: Proliferation of MCF-7 breast cancer cells. It is filed as cell-based. Particulars: Homo sapiens, read-out: IC50 for inhibiting the proliferation.
For another series, the system named is wild-type Hela cells. As to the kind of experiment: Proliferation of wild-type Hela cells. It is filed as cell-based. Particulars: Homo sapiens.
The next series concerns BT549. Put plainly: Proliferation of BT549 breast cancer cells. Particulars: Homo sapiens, BT-549; BT549, 72 h; read-out: IC50 for inhibiting the proliferation. Type of series: cell-based.
Series [2] can be described thus: Acute toxicity model mice, histopathology. It is filed as in vivo. From the text:
The tissue morphologies of the heart, liver, small intestine, white fat and kidney were observed by Histopathological method.

The next series has as its system MDA-MB-468. Put plainly: Proliferation of MDA-MB-468 breast cancer cells. Type of series: cell-based. The conditions noted are these: Homo sapiens, MDA-MB-468, 72 h; read-out: IC50 for inhibiting the proliferation.
Series [3] relates to BT474, ZR-75-1, BT549, HCC1937, HS578T, MCF-7, and T47D. Put plainly: Inhibition rate on seven breast cancer cells. It is filed as cell-based. Particulars: various breast cancer cells, FIG. 11C.
For series [4], the system named is IκBα and phosphorylated IKKα/β. As to the kind of experiment: Immunoblot of IκBα and phosphorylated IKKα/β in TNFα-treated HepG2 cells. It is filed as cell-based. The conditions noted are these: TNFα 20 ng/mL 30 minutes. From the text: IκBα and phosphorylated IKKα/β in the cells were then detected by WB.
In addition, HepG2 cells were also applied in the experiment. […] IκBα in the cells was then detected by WB.

[5] abbreviates: Biacore T200, read-out: dissociation constant (Kd) to Nur77-LBD.
[6] abbreviates: MDA-MB-231, FIG. 11B, read-out: IC50 for the inhibition of proliferation.
[7] abbreviates: single intragastric injection 200 mg/kg.
Where [8] appears, read: single intraperitoneal injection 20 mg/kg.

Experimental findings from patent US10808005B2, “Ligand for orphan nuclear receptor Nur77 and uses thereof” (IXMEDICINE (XIAMEN) BIOLOGICAL TECHNOLOGY COMPANY LIMITED, priority 2016, dated 2020) are described below.

pIC50, pKd: −log10 of the molar value. Where two headings read alike, the source gives them in different places.

As a reminder, the pKd is the negative decadic logarithm of the Kd, by convention in mol/L.

Nur77-LBD, sequence (P22736 360-595 limits assumed): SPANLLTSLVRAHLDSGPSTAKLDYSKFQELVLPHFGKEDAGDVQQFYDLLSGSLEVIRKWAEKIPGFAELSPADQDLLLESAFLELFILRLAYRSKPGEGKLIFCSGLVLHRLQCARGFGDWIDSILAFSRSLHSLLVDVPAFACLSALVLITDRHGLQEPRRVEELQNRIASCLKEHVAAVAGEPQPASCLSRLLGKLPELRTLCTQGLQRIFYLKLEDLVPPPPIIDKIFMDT

As for `CCOC(=O)OC1=C(C)C2=CC=C3[C@@](C)(CC[C@@]4(C)[C@@H]5C[C@](C)(C(=O)O)CC[C@]5(C)CC[C@]34C)C2=CC1=O` [XS0394], the “P-mTOR, P-p70S6K, and P—S6 in comparison with YXY101” value (from here on “P-mTOR, P-p70S6K, and P—S6”) in the series on mTOR signaling pathway is “can more significantly reduce P-mTOR, P-p70S6K, and P—S6”. In addition, the pKd at Nur77-LBD (setting [5]) is 5.90.

`CCOP(=O)(OCC)OC(=O)[C@]1(C)CC[C@]2(C)CC[C@]3(C)C4=CC=C5C(=CC(=O)C(O)=C5C)[C@]4(C)CC[C@@]3(C)[C@@H]2C1` [XS0491]: in the series with mTOR signaling pathway, the “P-mTOR, P-p70S6K, and P—S6” value was “can more significantly reduce P-mTOR, P-p70S6K, and P—S6”. Moreover, the pKd on Nur77-LBD is 6.47.

For the molecule `COC(=O)[C@]1(C)CC[C@]2(C)CC[C@]3(C)C4=CC(S(=O)(=O)[O-])c5c(cc(O)c(O)c5C)[C@]4(C)CC[C@@]3(C)[C@@H]2C1.[Na+]` (stereo partly shown) [XS0508], the “PARP cleavage in comparison with YXY101” value with MDA-MB-231 cells is given as “can more significantly induce PARP cleavage”.

Turning to `Cc1c(O)c(O)cc2c1CCC1[C@@]2(C)CC[C@@]2(C)[C@@H]3C[C@](C)(C(=O)O)CC[C@]3(C)CC[C@]12C` (stereo partly shown) [XS0335], the pIC50 in the series with MDA-MB-231 (setting [6]) was 5.73. The “P-mTOR, P-p70S6K, and P—S6” value with mTOR signaling pathway is “can more significantly reduce P-mTOR, P-p70S6K, and P—S6”.

For `CC1=C(O)C(=O)C=C2C1=CC=C1[C@@]2(C)CC[C@@]2(C)[C@@H]3C[C@](C)(C(=O)OP(=O)(OC(C)C)OC(C)C)CC[C@]3(C)CC[C@]12C` [XS0492], the “P-mTOR, P-p70S6K, and P—S6” value with mTOR signaling pathway was “can more significantly reduce P-mTOR, P-p70S6K, and P—S6”. In addition, the pKd on Nur77-LBD (setting [5]) is 5.89. Further, the “PARP cleavage in comparison with YXY101” value with MDA-MB-231 cells is reported as “can more significantly induce PARP cleavage”.

For `CC1=C(O)C(=O)C=C2C1=CC=C1[C@@]2(C)CC[C@@]2(C)[C@@H]3C[C@](C)(C(=O)O)CC[C@]3(C)CC[C@]12C` [YXY101, Celastrol], the pIC50 with T47D is 4.13; in series [1], 4.24; in the series on SKBR3, 5.58; in the series with MDA-MB-231 (MDA-MB-231, 72 h, read-out: IC50 for inhibiting the proliferation) it was 5.92; in the series with MCF-7 (MCF7, 72 h) it was 4.94; in the series with wild-type Hela cells, 5.92. The pIC50 in the series with BT549 was 6.61; in the series with MDA-MB-468, 6.73. Moreover, the adipose tissue morphology result in series [2] (setting [7]) was “the adipose tissue cells were arranged disorderly and some of the fibers were broken”; in [2] (setting [8]), “the adipose tissue cells were arranged disorderly and had many inflammatory cell infiltration”. Also, the heart tissue morphology result in series [2] (setting [7]) and in [2] (setting [8]) was “arranged disorderly” throughout. Also, the liver tissue morphology result is “the lobuli hepatis boundaries were blurred, the cytoplasm was reduced, and most of the hepatocytes died” in series [2] (setting [7]); “the lobuli hepatis had substantially obvious boundaries, the hepatocytes were plump and had normal morphology” in [2] (setting [8]). Moreover, the “small intestine tissue morphology” value in series [2] (setting [7]) is “the intestinal tissue was swollen apparently, the cell death increases, the inflammatory reaction was obvious, the intestinal villi were arranged disorderly”. In series [2] (setting [8]), the kidney tissue morphology result is “the kidney tissue had blurred glomerulus boundaries and many inflammatory cell infiltration, and the arrangement was not neat”.

For the molecule `CC1=C(O)C(=O)C=C2C1=CC=C1[C@@]2(C)CC[C@@]2(C)[C@@H]3C[C@](C)(C(=O)OCc4ccccc4)CC[C@]3(C)CC[C@]12C` [XS0285], the “inhibitory effects on proliferation compared with YXY101” value in series [3] is recorded as “close or even stronger than that of YXY101”.

On to `Cc1c(O)c(O)cc2c1CC=C1[C@@]2(C)CC[C@@]2(C)[C@@H]3C[C@](C)(CO)CC[C@]3(C)CC[C@]12C` [XS0503], for which the pIC50 is 5.92 with MDA-MB-231 (MDA-MB-231, 24 h, read-out: IC50 for inhibiting the proliferation) and 5.58 with MCF-7 (MCF7, MCF-7, 24 h).

On to `CCOC(=O)[C@]1(C)CC[C@]2(C)CC[C@]3(C)C4=CC=C5C(=CC(=O)C(O)=C5C)[C@]4(C)CC[C@@]3(C)[C@@H]2C1` [XS0462], for which the “inhibitory effects on proliferation compared with YXY101” value in series [3] is “close or even stronger than that of YXY101”.

With `COC(=O)[C@]1(C)CC[C@]2(C)CC[C@]3(C)C4=CC=C5C(=CC(=O)C(O)=C5C)[C@]4(C)CC[C@@]3(C)[C@@H]2C1` [XS0077], in the series on MDA-MB-231 (MDA-MB-231, read-out: IC50 for the inhibition of proliferation), the pIC50 was 5.74. Further, in the series with MDA-MB-231 cells, the “PARP cleavage in comparison with YXY101” value is reported as “can more significantly induce PARP cleavage”.

For the molecule `[2H]C1C=C2[C@@](C)(CC[C@@]3(C)[C@@H]4C[C@](C)(C(=O)O)CC[C@]4(C)CC[C@]23C)c2cc(O)c(O)c(C)c21` (stereo partly shown) [XS0474], the pIC50 with MDA-MB-231 (setting [6]) is 5.53. Also, the “P-mTOR, P-p70S6K, and P—S6” value with mTOR signaling pathway is “can more significantly reduce P-mTOR, P-p70S6K, and P—S6”. Besides, the pKd at Nur77-LBD is 5.59.

As to `Cc1c(O)c(O)cc2c1CC=C1[C@@]2(C)CC[C@@]2(C)[C@@H]3C[C@](C)(C(=O)O)CC[C@]3(C)CC[C@]12C` [XS0419], the pIC50 in the series with MDA-MB-231 (setting [6]) was 5.90. Further, in the series on mTOR signaling pathway, the “P-mTOR, P-p70S6K, and P—S6” value was “can more significantly reduce P-mTOR, P-p70S6K, and P—S6”. Also, the pKd on Nur77-LBD is 6.39. Further, in the series on MDA-MB-231 cells, the “PARP cleavage in comparison with YXY101” value is “can more significantly induce PARP cleavage”. Further, the “inhibitory effects on proliferation compared with YXY101” value in series [3] is recorded as “close or even stronger than that of YXY101”.

For the molecule `COc1ccc(NC(=O)[C@]2(C)CC[C@]3(C)CC[C@]4(C)C5=CC=C6C(=CC(=O)C(O)=C6C)[C@]5(C)CC[C@@]4(C)[C@@H]3C2)cc1` [XS0287], the “TNFα-induced degradation of IκBα” value in series [4] was “capable of inhibiting TNFα-induced degradation of IκBα”.

Regarding `CCOC(=O)COC(=O)[C@]1(C)CC[C@]2(C)CC[C@]3(C)C4=CC=C5C(=CC(=O)C(O)=C5C)[C@]4(C)CC[C@@]3(C)[C@@H]2C1` [XS0418], in the series on mTOR signaling pathway, the “P-mTOR, P-p70S6K, and P—S6” value is “can more significantly reduce P-mTOR, P-p70S6K, and P—S6”. For the same molecule, the pKd on Nur77-LBD (setting [5]) was 5.44. For the same molecule, the “PARP cleavage in comparison with YXY101” value in the series on MDA-MB-231 cells was “can more significantly induce PARP cleavage”. In addition, the “inhibitory effects on proliferation compared with YXY101” value in [3] is on record as “close or even stronger than that of YXY101”.

For `CCCC(=O)OC1=C(C)C2=CC=C3[C@@](C)(CC[C@@]4(C)[C@@H]5C[C@](C)(C(=O)OC)CC[C@]5(C)CC[C@]34C)C2=CC1=O` [XS0488], the pIC50 in the series on MDA-MB-231 (setting [6]) is 5.72. At Nur77-LBD (setting [5]), the pKd is 5.89. Besides, the “inhibitory effects on proliferation compared with YXY101” value in series [3] is “close or even stronger than that of YXY101”.

Regarding `COP(=O)(OC)OC(=O)[C@]1(C)CC[C@]2(C)CC[C@]3(C)C4=CC=C5C(=CC(=O)C(O)=C5C)[C@]4(C)CC[C@@]3(C)[C@@H]2C1` [XS0486], the “P-mTOR, P-p70S6K, and P—S6” value in the series on mTOR signaling pathway was “can more significantly reduce P-mTOR, P-p70S6K, and P—S6”.
